Source: patent US11306094B2, “Stable formulations of 5,10-methylene-(6R)-tetrahydrofolic acid” (MERCK & CIE, priority 2016, dated 2022)
Where a name gives a salt, the structure may show the parent alone. Read-outs that look alike come from different tables or passages of the source. One block for each compound: values may come before it.

Experiments:
[1] = Suspension equilibration stability; assay type: physicochemical
Text: (a) Suspension equilibration of (6R)-5,10-CH2-THF hemisulfate salt as starting material at temperatures other than room temperature in a variety of solvents and mixture are summarized in Table 10: […]

[2] = Crystal form stability by XRPD (85% ethanol; high temperature/low pressure); assay type: physicochemical
Method: (§1) (b) Stability in 85% Ethanol at Room Temperature (6R)-5,10-CH2-THF hemisulfate salt (3.01 g) was dispersed in 100 ml 85% EtOH at room temperature and stirred for 5 h, then filtered and dried at 30° C. and 8 mbar for 12 hours (over night). […] (c) Stability at High Temperature/Low Pressure (6R)-5,10-CH2-THF hemisulfate salt (2.17 g) was placed in a drying chamber at 65° C. and 8 mbar for 21 h. […] (d) Long-Term Stability of (6R)-5,10-CH2-THF Hemisulfate Salt and Pharmaceutical Composition Thereof In order to determine the long-term stabilities of (6R)-5,10-CH2-THF hemisulfate salt, the salts were stored in air at 25° C. and at 60% relative humidity. The content of (6R)-5,10-CH2-THF hemisulfate salt remaining was measured by HPLC at periodic intervals and is given by comparison with the initial value (% rel.).

[3] = Long-term stability of hemisulfate salt, HPLC content; assay type: physicochemical; conditions: salt stored in air, 25° C./60% rh
Method: as §1

[4] = Clinical safety; assay type: in vivo; conditions: patients, doses of up to 200 mg/m^2
[5] = Phase I/II study ISO-CC-002, pharmacokinetics/pharmacodynamics versus Levoleucovorin; assay type: in vivo; conditions: compared to Levoleucovorin, 32 colon cancer patients
Method: (b) In a single-blinded, randomized phase I/II study (ISO-CC-002) performed on 32 patients diagnosed with colon cancer the pharmacokinetic and pharmacodynamic properties of (6R)-5,10-CH2-THF hemisulfate compared to Levoleucovorin in tumor tissue, adjacent mucosa and blood plasma were investigated. The study was performed at the Sahlgrenska University Hospital in Goteborg, Sweden. […] The concentrations of methylenetetrahydrofolate and tetrahydrofolate in both tumor and adjacent mucosa were also much higher after administration of (6R)-5,10-CH2-THF hemisulfate than those obtained after administration of Levoleucovorin.

[6] = Comparative stability hemisulfate versus sulfate salt (Example 4-1); assay type: physicochemical
Method: Stability studies were performed as in the examples above. The conditions for the studies are provided with each data set provided. Some of the data in this example is from previous examples herein, but are reproduced here to provide some kind of a side-by-side nature of the presentation of the results.

[7] = physiological common salt solution, +25° C., cited from earlier work
[8] = Long-term stability of sulfate salt, HPLC content; assay type: physicochemical
Method: In order to compare the long-term stabilities of (6R)-5,10-CH2-THF hemisulfate salt to the long-term stabilities of (6R)-5,10-CH2-THF sulfate salt prepared according to EP 0 537 492 B1, stability data for (6R)-5,10-CH2-THF sulfate salt has been generated at various temperatures and humidities. (a) Stability of (6R)-5,10-CH2-THF Sulfate (6R)-5,10-CH2-THF sulfate salt was prepared according to literature procedures (EP 0 537 492 B1) and stored for 15 months at −20° C. Subsequently, samples of the product were stored at 5° C. resp. at 25° C. and 60% relative humidity resp. at 40° C. and 75% relative humidity. The content of (6R)-5,10-CH2-THF sulfate salt remaining in the sample was measured by HPLC at periodic intervals. The content of (6R)-5,10-CH2-THF sulfate was compared to the initial value at the time of preparation (% rel.).

[9] = Content of degradation product 10-formyltetrahydrofolic acid in sulfate salt, HPLC; assay type: physicochemical
Method: (b) Content of the degradation product 10-formyl-(6R)-tetrahydrofolic acid (6R)-5,10-CH2-THF sulfate salt was prepared according to literature procedures (EP 0 537 492 B1) and stored for 15 months at −20° C. Subsequently, samples of the product were stored at 5° C. resp. at 25° C. and 60% relative humidity resp. at 40° C. and 75% relative humidity. The content of 10-formyltetrahydrofolic acid, a major degradation product, was measured by HPLC at periodic intervals and disclosed as absolute values (% w/w).

[10] = after 15 months at −20° C., then 5° C., 0 months
[11] = after 15 months at −20° C., then 5° C., 6 months
[12] = after 15 months at −20° C., then 25° C./60% rh, 0 months
[13] = after 15 months at −20° C., then 25° C./60% rh, 6 months
[14] = after 15 months at −20° C., then 40° C./75% rh, 0 months
[15] = after 15 months at −20° C., then 40° C./75% rh, 6 months

Observation (suspension equilibration stability) ([1]; 2-PrOH with ~2 mM L-ascorbic acid, 40° C., 3 d): No change | Observation (suspension equilibration stability) ([1]; AcOH saturated with L-ascorbic acid, 50° C., 1 d): No change | Observation (suspension equilibration stability) ([1]; AcOH saturated with L-ascorbic acid, 50° C., 5 d): No change | Observation (suspension equilibration stability) ([1]; H2O, 5° C., 6 d): No change | Observation (suspension equilibration stability) ([1]; MeCN saturated with L-ascorbic acid, 50° C., 5 d): No change | Observation (suspension equilibration stability) ([1]; MeOH/formic acid 1:1, 50° C., 2 h): No change | Observation (suspension equilibration stability) ([1]; PEG4500/EtOH 1:9 saturated with L-ascorbic acid, 50° C., 7 d): No change | Observation (suspension equilibration stability) ([1]; THF with ~2 mM L-ascorbic acid, 40° C., 3 d): No change | Observation (suspension equilibration stability) ([1]; formic acid/THF 1:3, 10-20° C., 6 d): No change | X-ray pattern of crystal form Type 1 (XRPD) ([2]; drying chamber 65° C. and 8 mbar for 21 h): remained unchanged | X-ray pattern of crystal form Type 1 (XRPD) ([2]; stirred in 85% EtOH at room temperature for 5 h): remained unchanged | (6R)-5,10-CH2—THF hemisulfate (% rel) ([3]; 0 months): 100.0 % rel | (6R)-5,10-CH2—THF hemisulfate (% rel) ([3]; 3 months, listed as (6R)-5,10-CH2—THF hemisulfate (batch 1)): 99.7 % rel | (6R)-5,10-CH2—THF hemisulfate (% rel) ([3]; 3 months, listed as (6R)-5,10-CH2—THF hemisulfate (batch 2)): 99.9 % rel | (6R)-5,10-CH2—THF hemisulfate (% rel) ([3]; 3 months, listed as (6R)-5,10-CH2—THF hemisulfate (batch 3)): 99.5 % rel | (6R)-5,10-CH2—THF hemisulfate (% rel) ([3]; 6 months): 99.5 % rel | (6R)-5,10-CH2—THF hemisulfate (% rel) ([3]; 6 months, listed as (6R)-5,10-CH2—THF hemisulfate (batch 2)): 99.9 % rel | (6R)-5,10-CH2—THF hemisulfate (% rel) ([3]; 9 months, listed as (6R)-5,10-CH2—THF hemisulfate (batch 1)): 99.6 % rel | (6R)-5,10-CH2—THF hemisulfate (% rel) ([3]; 9 months, listed as (6R)-5,10-CH2—THF hemisulfate (batch 2)): 100.0 % rel | (6R)-5,10-CH2—THF hemisulfate (% rel) ([3]; 9 months, listed as (6R)-5,10-CH2—THF hemisulfate (batch 3)): 99.4 % rel | (6R)-5,10-CH2—THF hemisulfate (% rel) ([3]; 12 months, listed as (6R)-5,10-CH2—THF hemisulfate (batch 1)): 99.2 % rel | (6R)-5,10-CH2—THF hemisulfate (% rel) ([3]; 12 months, listed as (6R)-5,10-CH2—THF hemisulfate (batch 2)): 99.7 % rel | (6R)-5,10-CH2—THF hemisulfate (% rel) ([3]; 12 months, listed as (6R)-5,10-CH2—THF hemisulfate (batch 3)): 99.1 % rel | (6R)-5,10-CH2—THF hemisulfate (% rel) ([3]; 18 months, listed as (6R)-5,10-CH2—THF hemisulfate (batch 1)): 99.2 % rel | (6R)-5,10-CH2—THF hemisulfate (% rel) ([3]; 18 months, listed as (6R)-5,10-CH2—THF hemisulfate (batch 2)): 99.4 % rel | (6R)-5,10-CH2—THF hemisulfate (% rel) ([3]; 18 months, listed as (6R)-5,10-CH2—THF hemisulfate (batch 3)): 99.0 % rel | (6R)-5,10-CH2—THF hemisulfate (% rel) ([3]; 24 months, listed as (6R)-5,10-CH2—THF hemisulfate (batch 1)): 99.4 % rel | (6R)-5,10-CH2—THF hemisulfate (% rel) ([3]; 24 months, listed as (6R)-5,10-CH2—THF hemisulfate (batch 2)): 99.4 % rel | (6R)-5,10-CH2—THF hemisulfate (% rel) ([3]; 24 months, listed as (6R)-5,10-CH2—THF hemisulfate (batch 3)): 99.0 % rel | (6R)-5,10-CH2—THF hemisulfate (% rel) ([3]; 36 months, listed as (6R)-5,10-CH2—THF hemisulfate (batch 1)): 98.5 % rel | (6R)-5,10-CH2—THF hemisulfate (% rel) ([3]; 36 months, listed as (6R)-5,10-CH2—THF hemisulfate (batch 2)): 99.0 % rel | concentrations of methylenetetrahydrofolate and tetrahydrofolate in tumor and adjacent mucosa [5]: much higher | exposure and peak plasma concentrations of methylenetetrahydrofolate [5]: substantially greater | stability compared with the sulfate salt ([6]; 3 batches, various temperatures): remarkably more stable | stability at elevated temperature ([6]; +40° C. and relative humidity of 75%): excellent stability
Compound: Nc1nc2c(c(=O)[nH]1)N1CN(c3ccc(C(=O)N[C@@H](CCC(=O)O)C(=O)O)cc3)C[C@H]1CN2 [(6R)-5,10-CH2-THF hemisulfate salt, N-[4-[(6aR)-3-amino-1,2,5,6,6a,7-hexahydro-1-oxoimidazo[1,5-f]pteridin-8(9H)-yl]benzoyl]-L-glutamic acid]
safety [4]: safe

Compound: Nc1nc2c(c(=O)[nH]1)N1CN(c3ccc(C(=O)N[C@@H](CCC(=O)O)C(=O)O)cc3)C[C@H]1CN2 (mixture of isomers) [5,10-methylene-(6R,S)-tetrahydrofolic acid]
% relative stability ([7]; with the exclusion of air, 0 hours): 100.0% | % relative stability ([7]; with the exclusion of air, 4.0 hours): 58.0% | % relative stability ([7]; with the exclusion of air, 24.0 hours): 38.0% | % relative stability ([7]; with the exclusion of air, 26.0 hours): 18.0% | % relative stability ([7]; with the exclusion of air, 48.0 hours): 8.0% | % relative stability ([7]; without the exclusion of air, 0 hours): 100.0% | % relative stability ([7]; without the exclusion of air, 4.0 hours): 84% | % relative stability ([7]; without the exclusion of air, 24.0 hours): 12.0% | % relative stability ([7]; without the exclusion of air, 26.0 hours): 8.0% | % relative stability ([7]; without the exclusion of air, 48.0 hours): 6.0%

(6R)-5,10-CH2—THF sulfate (% rel.) [8, 10]: 98.7 % rel. | (6R)-5,10-CH2—THF sulfate (% rel.) [8, 11]: 97.3 % rel. | (6R)-5,10-CH2—THF sulfate (% rel.) [8, 12]: 98.7 % rel. | (6R)-5,10-CH2—THF sulfate (% rel.) [8, 13]: 95.5 % rel. | (6R)-5,10-CH2—THF sulfate (% rel.) [8, 14]: 98.7 % rel. | (6R)-5,10-CH2—THF sulfate (% rel.) [8, 15]: 95.0 % rel. | (6R)-5,10-CH2—THF sulfate (% rel.) ([8]; −20° C., 0 months): 100.0 % rel. | (6R)-5,10-CH2—THF sulfate (% rel.) ([8]; −20° C., 15 months): 98.7 % rel. | 10-formyltetrahydrofolic acid (% w/w) [9, 10]: 1.37 % w/w | 10-formyltetrahydrofolic acid (% w/w) [9, 11]: 1.47 % w/w | 10-formyltetrahydrofolic acid (% w/w) [9, 12]: 1.37 % w/w | 10-formyltetrahydrofolic acid (% w/w) [9, 13]: 1.89 % w/w | 10-formyltetrahydrofolic acid (% w/w) [9, 14]: 1.37 % w/w | 10-formyltetrahydrofolic acid (% w/w) [9, 15]: 2.36 % w/w | 10-formyltetrahydrofolic acid (% w/w) ([9]; −20° C., 0 months): 0.53 % w/w | 10-formyltetrahydrofolic acid (% w/w) ([9]; −20° C., 15 months): 1.37 % w/w
Compound: Nc1nc2c(c(=O)[nH]1)N1CN(c3ccc(C(=O)N[C@@H](CCC(=O)O)C(=O)O)cc3)C[C@H]1CN2 [(6R)-5,10-CH2-THF sulfate salt, 5,10-methylene-(6R)-tetrahydrofolic acid]
